Test results: BindingDB's records for doi:10.1124/jpet.103.062794 (Neurosearch, 2004)
pKi: −log10 of the molar value. “And” between values parts separate entries of the source, which are not always exact repeats. Equal entries are not always repeated.

Tests used:
[1] = molecular target: Glutamate receptor ionotropic, kainate 2 (Homo sapiens, UniProt Q13002)
[2] = molecular target: Glutamate receptor ionotropic, kainate 1 (Homo sapiens, UniProt P39086)
Sequence of Glutamate receptor ionotropic, kainate 1 (P39086 whole entry): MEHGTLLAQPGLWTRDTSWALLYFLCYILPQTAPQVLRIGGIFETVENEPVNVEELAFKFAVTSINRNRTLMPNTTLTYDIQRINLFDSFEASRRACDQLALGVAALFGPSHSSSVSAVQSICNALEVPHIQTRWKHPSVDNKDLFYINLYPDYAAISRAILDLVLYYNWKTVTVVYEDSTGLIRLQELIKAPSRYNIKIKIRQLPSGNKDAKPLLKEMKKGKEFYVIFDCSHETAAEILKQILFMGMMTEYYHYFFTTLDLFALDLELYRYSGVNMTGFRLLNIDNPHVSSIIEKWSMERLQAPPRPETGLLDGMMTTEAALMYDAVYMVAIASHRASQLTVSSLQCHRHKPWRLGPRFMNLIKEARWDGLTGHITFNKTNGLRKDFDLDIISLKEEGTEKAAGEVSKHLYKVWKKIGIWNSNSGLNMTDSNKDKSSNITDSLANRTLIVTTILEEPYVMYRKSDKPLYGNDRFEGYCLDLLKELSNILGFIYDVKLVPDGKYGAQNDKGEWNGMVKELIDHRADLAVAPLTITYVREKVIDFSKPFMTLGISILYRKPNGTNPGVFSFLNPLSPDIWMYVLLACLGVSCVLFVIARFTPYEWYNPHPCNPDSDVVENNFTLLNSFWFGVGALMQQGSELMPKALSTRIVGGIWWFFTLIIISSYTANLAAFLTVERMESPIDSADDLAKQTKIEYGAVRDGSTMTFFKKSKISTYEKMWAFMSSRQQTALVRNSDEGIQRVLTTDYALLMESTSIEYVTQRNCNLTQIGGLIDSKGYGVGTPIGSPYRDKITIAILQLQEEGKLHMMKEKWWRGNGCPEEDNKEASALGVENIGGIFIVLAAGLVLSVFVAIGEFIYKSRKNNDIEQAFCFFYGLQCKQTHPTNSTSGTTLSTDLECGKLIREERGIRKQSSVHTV

Sequence of Glutamate receptor ionotropic, kainate 2 (Q13002 whole entry): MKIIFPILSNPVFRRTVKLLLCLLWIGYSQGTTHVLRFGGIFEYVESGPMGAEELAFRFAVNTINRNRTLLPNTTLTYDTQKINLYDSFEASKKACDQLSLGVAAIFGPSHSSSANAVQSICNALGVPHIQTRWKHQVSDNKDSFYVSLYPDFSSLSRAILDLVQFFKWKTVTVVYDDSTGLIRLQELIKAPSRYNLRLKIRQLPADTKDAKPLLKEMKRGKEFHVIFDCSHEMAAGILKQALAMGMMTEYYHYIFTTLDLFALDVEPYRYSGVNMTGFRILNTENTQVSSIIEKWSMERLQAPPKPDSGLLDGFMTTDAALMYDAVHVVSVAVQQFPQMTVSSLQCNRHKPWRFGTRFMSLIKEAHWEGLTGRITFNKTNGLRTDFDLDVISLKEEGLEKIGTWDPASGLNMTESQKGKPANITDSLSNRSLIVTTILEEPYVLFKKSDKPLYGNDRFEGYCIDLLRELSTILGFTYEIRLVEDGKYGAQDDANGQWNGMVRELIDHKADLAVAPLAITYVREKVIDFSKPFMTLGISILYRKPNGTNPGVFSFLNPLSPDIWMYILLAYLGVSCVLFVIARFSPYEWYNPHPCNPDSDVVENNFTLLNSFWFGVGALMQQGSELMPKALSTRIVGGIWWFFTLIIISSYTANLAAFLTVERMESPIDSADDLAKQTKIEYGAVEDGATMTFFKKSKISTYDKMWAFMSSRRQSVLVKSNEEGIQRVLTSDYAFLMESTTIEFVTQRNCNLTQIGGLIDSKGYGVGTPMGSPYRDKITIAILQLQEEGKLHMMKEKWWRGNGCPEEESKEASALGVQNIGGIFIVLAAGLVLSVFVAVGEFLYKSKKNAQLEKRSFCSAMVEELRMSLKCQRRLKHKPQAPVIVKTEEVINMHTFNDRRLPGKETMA

pKi [1]	pKi [2]	Compound
< 4.52	< 5.00 and 5.80	O=C(Nc1cc(NC(=O)c2ccccc2)c(C(=O)O)cc1C(=O)O)c1ccccc1 [NS3763]
< 5.00		CN1CCc2c(-c3ccc(S(=O)(=O)N(C)C)cc3)cc3c(c2C1)NC(=O)/C3=N\OC(CCO)C(=O)O (stereo not drawn) [SPD 502]
